Consider eight molecules from PubChem BioAssay (NCI).

Each structure is given as a SMILES string. Several values for one entry are separate records, joined by “and”; a condition that tells them apart may be missing. Identical values can stand only once.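 Method: 48-hour compound exposure of cells in 96-well plates, five concentrations, linear interpolation of endpoints. At the GI50, growth is halved. TGI: total growth inhibition.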 Bounds are passed on as bounds.

Common to all, as to assay: growth of human tumour cells (NCI), 48 h
Test [1] deals with HL-60(TB) leukemia.
Test [2] has as its system A498 renal.
The subject of test [3] is SF-295 CNS.
Test [4] deals with PC-3 prostate.
In test [5] the test system is OVCAR-8 ovarian.
Test [6] deals with SW-620 colon.
The subject of test [7] is DU-145 prostate.
The test system of test [8] is CAKI-1 renal.
For test [9], the system named is UACC-62 melanoma.
In test [10] the test system is SK-OV-3 ovarian.

As to `CCN(C(=O)CN1CCN(c2cc3c(cc2F)c(=O)c(C(=O)O)cn3CC)CC1)c1nc(-c2ccccc2)cs1`, the GI50 in [1] was 0.199 µM; in test [2], 0.244 µM; in [3] it was 0.235 µM; in test [4], 0.362 µM; in test [5] it was 0.364 µM; in test [6] it was 0.412 µM. For the same molecule, the values for the GI50 in test [7] and in [8] were 0.453 µM and 0.312 µM, respectively. For the same molecule, the TGI in test [1] was 0.47 µM; in test [2], 0.917 µM; in test [3], 0.746 µM; in [4] it was > 100 µM; in test [5], > 100 µM; in test [6] it was > 100 µM. In addition, the TGI in test [7] and in [8] was > 100 µM each time.
Consider `CCOC(=O)C1=C(C)N2C(=NC3=C(CCC/C3=C\c3ccc(Cl)cc3)C2c2ccc(Cl)cc2)S1` (stereo unspecified), for which the GI50 in test [1] was 3.09 µM; in test [2], 1.37 µM; in [3] it was 2.85 µM; in [4], 2.77 µM; in test [5], 3.24 µM; in [6], 2.44 µM. In addition, the GI50 in test [7] is 3.92 µM; in [9], 3.25 µM; in test [8], 5.08 µM; in test [10], 6.68 µM. Further, the TGI in [1] is 9.24 µM; in [2], 3.09 µM; in [3], 8.76 µM; in test [4], > 100 µM; in test [5] it was 31 µM; in test [6], 6.39 µM. The TGI was 17.6 µM in test [7], 16.8 µM in [9], > 100 µM in test [8] and > 100 µM in test [10].
For the molecule `CN(c1ccc(C#N)c(Cl)c1)C1CCC(NC(=O)c2ccc(N3CCN(C4CN(c5ccc6c(c5)C(=O)N(C5CCC(=O)NC5=O)C6=O)C4)CC3)cc2)CC1` (stereo unspecified), the GI50 in [1], in test [2], in test [3], in test [4], in [5] and in test [6] was > 100 µM each time. Also, the GI50 in test [7], in test [9], in test [8] and in test [10] was > 100 µM throughout. For the same molecule, the TGI in test [1], in test [2], in [3], in [4], in test [5] and in test [6] was > 100 µM in each case. Further, the TGI in [7], in [9], in test [8] and in test [10] was > 100 µM in each case.
With `CCN1C(=O)N(CC)C2C1NN=c1s/c(=C\c3ccc[nH]3)c(=O)n12` (stereo unspecified), the GI50 in test [1] was 0.285 µM; in test [2] it was 0.102 µM; in test [3], 0.334 µM; in [4], 0.372 µM; in test [5], 0.85 µM; in test [6] it was 0.326 µM. Besides, the GI50 in test [7] is 0.496 µM; in [9], 0.435 µM; in test [8], 0.301 µM; in test [10], 0.301 µM. For the same molecule, the TGI was 1.4 µM in test [1]; 0.622 µM in [2]; > 40.3 µM in test [3]; > 100 µM in [4]; > 100 µM in test [5]; > 100 µM in test [6]. Moreover, the TGI in test [7], in [9], in test [8] and in test [10] was > 100 µM each time.
Regarding `O=[N+]([O-])c1ccc2c(Nc3ccccc3-c3ccccc3Nc3c4ccccc4nc4cc([N+](=O)[O-])ccc34)c3ccccc3nc2c1`, the TGI is 15.1 µM in [1]; 52.3 µM in test [2]; 60.5 µM in test [3]; 6.61 µM in test [4]; 39.9 µM in test [5]; 11.1 µM in [6]. The TGI in test [7] was 35.2 µM; in [9], 11.5 µM; in test [8], 50.6 µM; in [10] it was > 56.2 µM.
As for `Cc1cccc2c(Nc3ccc(NS(C)(=O)=O)cc3)c3ccc([N+](=O)[O-])cc3nc12`, the GI50 is 2.07 µM in test [1]; 0.703 µM in test [2]; 0.29 µM in [3]; 1.49 µM in [4]; 1.3 µM in test [5]; 0.87 µM in [6]. Further, the GI50 in test [7] is 0.253 µM; in test [9], 0.773 µM; in [8], 2.43 µM; in test [10], 2.4 µM. Also, the TGI came out at 7.09 µM in [1]; 3.81 µM in test [2]; 7.21 µM in [3]; 7.02 µM in test [4]; 6.42 µM in test [5]; 3.23 µM in test [6]. The TGI turned out to be 4.4 µM in test [7], 3.01 µM in test [9], 24 µM in [8] and 17.1 µM in test [10].
As to `CC1(C)CC2=C(Sc3ccccc3N2)C(=O)C1C(=O)C(=O)Nc1cc(Cl)ccc1Cl` (stereo unspecified), the TGI in [1], in [2], in [3], in [4], in test [5] and in [6] was > 100 µM throughout. Moreover, the TGI in test [7], in [9], in test [8] and in test [10] was > 100 µM throughout.
Consider `C=CCn1c(=O)c2cnc(Nc3ccc(N4CCN(C)CC4)cc3)nc2n1-c1cccc(C(C)(C)O)n1`, for which the GI50 is 0.272 µM and 0.325 µM in test [1]; 0.0319 µM and 0.0572 µM in test [2]; 0.48 µM and 0.589 µM in test [3]; 1.41 µM and 1.06 µM in test [4]; 0.417 µM and 0.526 µM in test [5]; 0.316 µM and 0.448 µM in test [6]. The GI50 in [7] was 0.872 µM and 0.678 µM; in test [9], 1.18 µM and 0.484 µM; in [8], 0.24 µM and 0.152 µM; in [10], 0.251 µM and 0.237 µM. Besides, the TGI in [1] was 1.35 µM and > 3.11 µM; in test [2], 0.364 µM and 0.448 µM; in test [3], 14.4 µM and > 10 µM; in test [4], > 65.6 µM; in [5], 2.91 µM and > 7.79 µM; in test [6], 12.3 µM and > 10 µM. Besides, the TGI is 18 µM and > 10 µM in test [7]; 20.5 µM and > 10 µM in test [9]; 16.7 µM and > 10 µM in test [8]; 8.08 µM and > 3.11 µM in test [10].
